These results are taken from patent publication US7648977B2, “Pharmaceutical composition having a ruthenium oxalato compound and method of using the same” (The University of Hong Kong, priority 2005, dated 2010).

One experiment has as its system HIV-1(BaL). To be noted: Hut/CCR5 cells, 3 or 7 days, 0.5-50 μM, viral p24 antigen. As for the experimental part:
Following infection, the cells were washed to remove residual viral inoculums and cultured in the presence of compounds (400 μL) for 3 or 7 days. Culture supernatants were harvested and viral replication was measured by determination of viral p24 antigen concentration by ELISA (HIV-1 p24 antigen Kit, Beckman Coulter). Compounds were tested in triplicate at 3 concentrations ranging from 0.5-50 μM.

Another experiment has as its system HIV-1(IIIB). To be noted: 0.5-50 μM, viral p24 antigen, FIG. 8. As for the experimental part:
GHOST/CXCR4 and PBMC cells in 24-well plate (5×10^5 cells/well) were pretreated with compounds (400 μL) for an hour at 37° C. and subsequently infected in triplicate with a panel of CCR5-tropic HIV-1 isolates (with the addition of 5 μL of HIV-1 stock to each well, total p24 content=1500 pg) for 3 h. Following infection, the cells were washed to remove residual viral inoculums and cultured in the presence of compounds (400 μL) for 3 or 7 days. Culture supernatants were harvested and viral replication was measured by determination of viral p24 antigen concentration by ELISA (HIV-1 p24 antigen Kit, Beckman Coulter). Compounds were tested in triplicate at 3 concentrations ranging from 0.5-50 μM. AZT was also examined as a reference standard.

Experiment [1] concerns HIV-1 infected Hut/CCR5 cells. The experiment can be described thus: TUNEL assay, cytoprotective activity in HIV-1 infected Hut/CCR5 cells. The following applies: HIV-1 infected Hut/CCR5 cells, 0.5, 5 and 50 μM. Format: cell-based. The source says: The TUNEL reaction preferentially labels DNA strand breaks generated during apoptosis. This is done by labeling DNA strand breaks by terminal deoxynucleotidyl transferase (TdT), which catalyzes polymerization of labeled nucleotides to free 3′-OH DNA ends in a template-independent manner (TUNEL-reaction). The TUNEL method (In Situ Cell Death Detection Kit, Fluorescein, Roche) combined with flow cytometry was used for the measurement of apoptosis (Gorczyca et al. Cancer Res. (1993), 53, 1945). The quantitative analysis of 3′-OH ends was performed using the MDADS analysis program (Beckman Coulter).
HIV-1 infected Hut/CCR5 cells were treated with 2 (0.5, 5, and 50 μM) for 3 days. The cells were fixed (in 4% paraformaldehyde in PBS, pH 7.4) and permeabilisated (0.1% Triton X-100 in 0.1% sodium citrate), The cells were then rinsed twice with PBS and labeled with 50 μL TUNEL reaction mixture (50 μL Enzyme solution +450 μL Label solution) for 60 min. at 37° C. in a humidified atmosphere in dark. The samples were rinsed with PBS three times and resuspended in 1 mL PBS containing 5 μg/mL of PI and 0.1% RNAse. Flow cytometry was performed on a FACScan cytometry. The red (PI) and green (fluorescein) fluorescence emissions from each cell were measured.

The target in the next experiment is HIV-1 RT (Human immunodeficiency virus type 1 group M subtype B, UniProt P04585). The following applies: percentage luminescence relative to untreated control.

Experimental for HIV-1 RT: The inhibitory effect of different compounds on HIV-1 RT activities were assayed using a commercial assay kit (Reverse Transcriptase Assay, Chemiluminescent, Roche). […] (30 min.). The ELISA assays were conducted by following the manufacturer's instructions (Eberle and Seibl J. Virol. Methods (1992), 40, 347). In general, the indicated components were added to the corresponding wells of the microtitre plate from the kit and incubated for 1 h at 37° C. The solution in each well was then completely removed and the wells were rinsed five times with 250 μL of washing buffer per well. During each washing step, the washing buffer was left in the wells for a minimum of 30 seconds. The microtitre plate modules were covered and dried with a blotting paper, followed by the incubation with anti-DIG-POD working dilution was added (200 μL per well) for 1 h at 37° C. The solution was discarded followed by the washing and drying steps as described above. The POD substrate was added (200 μL per well) and was incubated at room temperature for 15 min. The chemiluminescent signal was measured and quantified using a microtitre plate chemiluminescence reader. The HIV-1 RT activities were evaluated based on percentage luminescence of the solutions relative to the negative control (untreated population).

Take Na7[Ru4(μ3-O)4(C2O4)6] [Complex 2]: the “inhibition of HIV-1(BaL) replication” value in the experiment with HIV-1(BaL) is on record as “inhibited”. For the same substance, in the experiment on HIV-1(IIIB), the “inhibition of HIV-1 replication in GHOST/CXCR4 cells” value is “inhibited” and the “inhibition of HIV-1 replication in PBMC cells” value was “inhibited”. Besides, in experiment [1], the “cytoprotective activity (TUNEL)” value was “showed cytoprotective activity”. At HIV-1 RT, the “inhibition of HIV-1 RT activity” value was “inhibited”.
